ChEMBL document CHEMBL5543173, “Discovery of a New Anti-Inflammatory Agent from Anemoside B4 Derivatives and Its Therapeutic Effect on Colitis by Targeting Pyruvate Carboxylase” (J Med Chem, 2024)
Active and inactive are the calls of the source. No cut-off for these calls is given here.

Tests used:
[1] = Half life in colon of ICR mouse at 15 mg/kg, IG measured for 12 hrs by LC-MS/MS analysis; type: ADME, organism-based; settings: po
Mus musculus [2] = test: Anti-colitis activity in ICR mouse model assessed as decrease in DSS-induced P65 phosphorylation in colon tissue at 60 mg/kg, IG treated for 8 days consecutively in presence of DADA by Western blot analysis; type: functional, organism-based; settings: time 8.0 day
[3] = MRT (0 to t) in […] administered as hydroxypropyl-beta-cyclodextrin at 20 mg/kg, IG measured for 12 hrs by LC-MS/MS analysis; type: ADME, organism-based; settings: in vivo, po
Mus musculus [4] = test: Anti-colitis activity in ICR mouse model assessed as decrease in DSS-induced pyruvate carboxylase level at 60 mg/kg, IG treated for 8 days consecutively in presence of DADA; type: functional, organism-based; settings: time 8.0 day
Mus musculus [5] = test: Anti-colitis activity in ICR mouse model assessed as decrease in DSS-induced IL-6 level administered intragastrically treated for 8 days consecutively; type: functional, organism-based; settings: dose 15-60 mg/kg, route ig, time 8.0 day
[6] = Stability in mouse liver microsomes assessed as intrinsic clearance at 10 uM preincubated for 5 mins followed by NADPH addition measured for 10 to 480 mins by LC-MS/MS analysis; type: ADME, Microsome; settings: time 15-485 min
Mus musculus [7] = test: Anti-colitis activity in ICR mouse model assessed as decrease in DSS-induced epithelial cell injury in colon tissue at 60 mg/kg, IG treated for 8 days consecutively in presence of DADA by H and E staining based analysis; type: functional, organism-based; settings: time 8.0 day
THP-1 [8] = test: Anti-inflammatory activity in human THP-1 cells assessed as decrease in LPS-induced pro-IL-1beta level at 1 to 10 uM pretreated for 1 hr followed by LPS/ATP treatment for 6 hrs by Western blot analysis; type: functional, cell-based; settings: dose 1-10 µM, time 7.0 hrs
[9] = Volume of distribution in ICR mouse at 15 mg/kg, IG measured for 12 hrs by LC-MS/MS analysis; type: ADME, organism-based; settings: in vivo, po
THP-1 [10] = test: Anti-inflammatory activity in human THP-1 cells assessed as decrease in LPS-induced phosphorylated I-kappaB-alpha level pretreated for 1 hr followed by LPS treatment for 6 hrs by Western blot analysis; type: functional, cell-based; settings: dose 1-10 µM, time 7.0 hrs
[11] = Toxicity in ICR mouse assessed as change in liver index at 300 mg/kg, IG measured for 9 days; type: organism-based; settings: in vivo, po, 216 h, time 9 day
Mus musculus [12] = test: Anti-colitis activity in ICR mouse model assessed as […] DSS-induced colon length at 15 to 60 mg/kg, IG treated for 8 days consecutively; type: functional, organism-based; settings: dose 15-60 mg/kg, time 8.0 day
Mus musculus [13] = test: Anti-colitis activity in ICR mouse model assessed as reversal of DSS-induced spleen weight at 15 to 60 mg/kg, IG treated for 9 days consecutively; type: functional, organism-based; settings: dose 15-60 mg/kg, time 9.0 day
[14] = Toxicity in ICR mouse assessed as change in body weight at 300 mg/kg, IG measured for 9 days; type: organism-based; settings: in vivo, po, 216 h, time 9 day
[15] = Half life in Sprague-Dawley rat administered as hydroxypropyl-beta-cyclodextrin at 20 mg/kg, IG measured for 12 hrs by LC-MS/MS analysis; type: ADME, organism-based; settings: in vivo, po
Mus musculus [16] = test: Anti-colitis activity in ICR mouse model assessed as decrease in DSS-induced DAI score at 15 to 60 mg/kg, IG treated for 8 days consecutively; type: functional, organism-based; settings: dose 15-60 mg/kg, time 8.0 day
[17] = MRT (0 to t) in ICR mouse at 15 mg/kg, IG measured for 12 hrs by LC-MS/MS analysis; type: ADME, organism-based; settings: in vivo, po
[18] = Toxicity in ICR mouse assessed as change in colon index at 300 mg/kg, IG measured for 9 days; type: organism-based; settings: in vivo, po, 216 h, time 9 day
THP-1 [19] = test: Anti-inflammatory activity in human THP-1 cells assessed as decrease in LPS-induced NLRP3 level at 1 to 10 uM pretreated for 1 hr followed by LPS/ATP treatment for 6 hrs by Western blot analysis; type: functional, cell-based; settings: dose 1-10 µM, time 7.0 hrs
THP-1 [20] = test: Anti-inflammatory activity in human THP-1 cells assessed as decrease in LPS-induced IL-6 level at 10 uM pretreated for 1 hr followed by LPS treatment for 24 hrs in presence of DADA by ELISA; type: functional, cell-based; settings: time 25.0 hrs
[21] = Toxicity in ICR mouse assessed as change in lungs index at 300 mg/kg, IG measured for 9 days; type: organism-based; settings: in vivo, po, 216 h, time 9 day
[22] = Toxicity in ICR mouse assessed as change in heart index at 300 mg/kg, IG measured for 9 days; type: organism-based; settings: in vivo, po, 216 h, time 9 day
[23] = Tmax in ICR mouse at 15 mg/kg, IG measured for 12 hrs by LC-MS/MS analysis; type: ADME, organism-based; settings: in vivo, po
Mus musculus [24] = test: Anti-colitis activity in ICR mouse model of DSS-induced colitis assessed as decrease in DAI score at 15 to 60 mg/kg, IG treated for 9 days consecutively; type: functional, organism-based; settings: dose 15-60 mg/kg, time 9.0 day
[25] = AUC (0 to t) in colon of ICR mouse at 15 mg/kg, IG measured for 12 hrs by LC-MS/MS analysis; type: ADME, organism-based; settings: po
Mus musculus [26] = test: Anti-colitis activity in ICR mouse model assessed as decrease in DSS-induced body weight loss at 15 to 60 mg/kg, IG treated for 9 days consecutively; type: functional, organism-based; settings: dose 15-60 mg/kg, time 9.0 day
Mus musculus [27] = test: Anti-colitis activity in ICR mouse model assessed as reversal of DSS-induced colon shortening administered intragastrically for 9 days consecutively; type: functional, organism-based; settings: route ig, time 9.0 day
[28] = AUC (0 to t) in Sprague-Dawley rat administered as hydroxypropyl-beta-cyclodextrin at 20 mg/kg, IG measured for 12 hrs by LC-MS/MS analysis; type: ADME, organism-based; settings: in vivo, po
THP-1 [29] = test: cells; settings: Homo sapiens, THP-1, 24 h
Description: Cytotoxicity against human THP-1 cells assessed as inhibition of cell viability incubated for 24 hrs by CCK8 assay

Mus musculus [30] = test: Anti-colitis activity in ICR mouse model assessed as decrease in DSS-induced I-kappaB-alpha degradation in colon tissue at 60 mg/kg, IG treated for 8 days consecutively by Western blot analysis; type: functional, organism-based; settings: time 8.0 day
THP-1 [31] = test: Anti-inflammatory activity in human THP-1 cells assessed as decrease in LPS-induced IL-6 level pretreated for 1 hr followed by LPS treatment for 24 hrs by ELISA; type: functional, cell-based; settings: dose 0.1-10 µM, time 25.0 hrs

half-life [1]: 92.4 min | MRT last at 12 h [3]: 4.05 h | CLH [6]: 6.46 µL/min/mg | Vd [9]: 2867.15 L/kg | t1/2 [15]: 1.38 h | MRT last at 12 h [17]: 3.1 h | Tmax [23]: 57.6 min | AUC(0-t) at 12 h [25]: 3210 ng·h/mL | AUCt [28]: 223.22 ng·h/mL | IC50 (THP-1 [29]): ≥ 80 µM
Compound: C=C(C)[C@@H]1CC[C@]2(C(=O)NCCCCCC(=O)OC)CC[C@]3(C)[C@H](CC[C@@H]4[C@@]5(C)CC[C@H](O[C@@H]6OC[C@H](O)[C@H](O)[C@H]6O[C@@H]6O[C@@H](C)[C@H](O)[C@@H](O)[C@H]6O)[C@@](C)(CO)[C@@H]5CC[C@]43C)[C@@H]12
Activity (Mus musculus [2]): inactive | Activity (Mus musculus [4]): inactive | Activity (Mus musculus [5]): Dose-Dependent Effect | Activity (Mus musculus [7]): inactive | Activity (THP-1 [8]): Active | Activity (THP-1 [10]): Dose-Dependent Effect | Activity [11]: Non-Toxic | Activity (Mus musculus [12]): Active | Activity (Mus musculus [13]): Active | Activity [14]: Non-Toxic | Activity (Mus musculus [16]): Active | Activity [18]: Non-Toxic | Activity (THP-1 [19]): Active | Activity (THP-1 [20]): inactive | Activity [21]: Non-Toxic | Activity [22]: Non-Toxic | Activity (Mus musculus [24]): Active | Activity (Mus musculus [26]): Active | Activity (Mus musculus [27]): Dose-Dependent Effect | Activity (Mus musculus [30]): Active | Activity (THP-1 [31]): Dose-Dependent Effect
